Test results: US20230129034A1, “TREATMENT OF DISEASE WITH ESTERS OF SELECTIVE RXR AGONISTS” (Io Therapeutics, Inc., priority 2017, published 2023)
Entries after “also recorded” stand apart in the source; their conditions may differ.

Legend:
[1] = molecular target: T1, RXRβ (Homo sapiens, UniProt P28702); experiment: RXR homodimer transactivation assay (rCRBPII/RXRE-tk-Luc reporter, CV-1 cells); format: cell-based
T1 construct: an expression construct including a full length RXRα, RXRβ, or RXRy; expressed in transfected cells; host or cells: CV-1
T1 sequence (P28702 1-533): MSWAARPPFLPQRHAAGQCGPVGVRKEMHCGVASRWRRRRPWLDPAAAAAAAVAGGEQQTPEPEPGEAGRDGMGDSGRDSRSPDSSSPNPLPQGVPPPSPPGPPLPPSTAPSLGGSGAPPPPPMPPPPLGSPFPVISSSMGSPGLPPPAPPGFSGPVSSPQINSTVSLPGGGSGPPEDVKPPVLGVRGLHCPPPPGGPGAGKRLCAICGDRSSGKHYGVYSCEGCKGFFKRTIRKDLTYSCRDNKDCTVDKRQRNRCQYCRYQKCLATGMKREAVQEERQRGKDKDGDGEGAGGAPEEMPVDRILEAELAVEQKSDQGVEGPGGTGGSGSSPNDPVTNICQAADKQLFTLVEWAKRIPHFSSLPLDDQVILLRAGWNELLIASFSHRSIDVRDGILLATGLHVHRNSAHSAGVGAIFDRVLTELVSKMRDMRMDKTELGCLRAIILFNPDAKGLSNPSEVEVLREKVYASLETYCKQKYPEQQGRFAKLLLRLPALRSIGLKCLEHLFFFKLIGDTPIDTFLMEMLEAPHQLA
Description: (§1) Data are mean values ± SE from five independent experiments.

[2] = molecular target: T2, RXRα (Homo sapiens, UniProt P19793); experiment: as above; format: cell-based
T2 construct: an expression construct including a full length RXRα, RXRβ, or RXRy; expressed in transfected cells; host or cells: CV-1
T2 sequence (P19793 1-462): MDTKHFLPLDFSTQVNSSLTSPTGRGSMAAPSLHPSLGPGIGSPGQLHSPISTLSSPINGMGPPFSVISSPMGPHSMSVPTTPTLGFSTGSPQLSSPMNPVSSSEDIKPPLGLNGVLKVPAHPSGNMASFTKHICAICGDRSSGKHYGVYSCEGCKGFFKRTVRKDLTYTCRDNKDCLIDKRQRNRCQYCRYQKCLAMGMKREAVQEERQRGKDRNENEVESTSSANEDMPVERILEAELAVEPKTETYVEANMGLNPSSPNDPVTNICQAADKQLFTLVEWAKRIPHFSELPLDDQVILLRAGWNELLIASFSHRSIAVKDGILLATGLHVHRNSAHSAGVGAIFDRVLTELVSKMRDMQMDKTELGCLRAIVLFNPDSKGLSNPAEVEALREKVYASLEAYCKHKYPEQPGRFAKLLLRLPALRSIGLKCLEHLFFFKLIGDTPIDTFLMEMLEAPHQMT
Description: as §1

[3] = molecular target: T3, RXRγ (Homo sapiens, UniProt P48443); experiment: as above; format: cell-based
T3 construct: an expression construct including a full length RXRα, RXRβ, or RXRy; expressed in transfected cells; host or cells: CV-1
T3 sequence (P48443 1-463): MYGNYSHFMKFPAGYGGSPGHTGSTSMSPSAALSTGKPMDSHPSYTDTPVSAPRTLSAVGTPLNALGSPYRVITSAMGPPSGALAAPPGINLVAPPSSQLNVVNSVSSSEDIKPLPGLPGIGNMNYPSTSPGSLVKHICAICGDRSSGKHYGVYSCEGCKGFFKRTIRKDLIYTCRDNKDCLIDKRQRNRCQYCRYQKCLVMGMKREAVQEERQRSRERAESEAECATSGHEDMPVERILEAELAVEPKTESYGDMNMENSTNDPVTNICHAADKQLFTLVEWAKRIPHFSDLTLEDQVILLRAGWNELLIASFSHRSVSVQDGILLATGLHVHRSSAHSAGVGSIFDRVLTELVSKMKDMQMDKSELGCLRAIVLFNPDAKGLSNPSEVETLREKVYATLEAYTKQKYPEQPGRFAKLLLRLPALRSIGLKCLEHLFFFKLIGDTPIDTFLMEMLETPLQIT
Description: as §1

[4] = molecular target: T4, FXR/RXR (Homo sapiens, UniProt P19793); experiment: Permissive heterodimer transactivation assay, CV-1 cells, 3x(IBABP/IRI)-tk-Luc; format: cell-based; conditions: 20 hr, luciferase vs GW4064
T4 construct: expressed in transfected cells; host or cells: CV-1
T4 sequence (Q96RI1 whole entry partner, one chain of several): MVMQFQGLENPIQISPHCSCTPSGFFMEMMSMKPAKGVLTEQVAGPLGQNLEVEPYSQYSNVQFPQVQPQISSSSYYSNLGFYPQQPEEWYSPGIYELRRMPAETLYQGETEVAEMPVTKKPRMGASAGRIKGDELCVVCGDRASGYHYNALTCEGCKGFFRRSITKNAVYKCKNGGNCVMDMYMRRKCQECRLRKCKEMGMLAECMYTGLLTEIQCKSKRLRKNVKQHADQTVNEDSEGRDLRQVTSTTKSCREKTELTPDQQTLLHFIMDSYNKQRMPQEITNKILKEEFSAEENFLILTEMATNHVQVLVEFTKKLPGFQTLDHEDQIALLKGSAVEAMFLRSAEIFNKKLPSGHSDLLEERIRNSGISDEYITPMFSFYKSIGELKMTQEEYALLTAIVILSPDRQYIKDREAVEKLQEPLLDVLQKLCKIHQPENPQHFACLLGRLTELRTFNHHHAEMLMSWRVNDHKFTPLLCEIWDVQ
Description: For PPARy: CV-1 cells were transfected with 3x(rAOX/DR1)-tk-Luc reporter gene and an expression vector for PPARy. For FXR:CV-1 cells were transfected with 3x(IBABP/IRI)-tk-Luc reporter gene and vectors for FXR and RXRα. For LXR:CV-1 cells were transfected with 3x(PLTP/LXRE)-tk-Luc reporter gene with vectors for LXRα or LXRβ. For Nurr1: COS7 cells were transfected with 3xNBRE-tk-luc reporter gene and full length Nurr-1 with or without full-length RXRα plasmid. […] Luciferase data were normalized to co-transfected β-gal activity. Luciferase activity was expressed as percent of maximal activity obtained using specific agonists. Rosiglitazone (PPARy), GW4064 (FXR), T0901317 (LXR).

[5] = system: EAE in B6 mice; experiment: EAE dose titration experiment in B6 mice with spleen and CNS cell analysis; format: in vivo; conditions: for EAE disease overall, dose titration: 50 µg, 100 µg or 200 µg every day from day 8
Method: A dose titration experiment was also conducted in EAE mice. EAE was induced in 28 B6 mice with MOG/CFA and PT as above. Mice were scored on day 7 as indicated above and divided into groups by score so means are as equal as possible.
At the completion of the experiment, the vehicle control and 200 µg/day groups were euthanized and spleen and CNS samples obtained.

[6] = Plasma and brain concentrations after intravenous injection in ICR mice (LC-MS/MS); format: in vivo; conditions: 1 mg/kg IV
Method: The compounds were dissolved in 4% DMSO, 1% Tween80 and 95% PBS(v/v) at a concentration of 0.2 mg/ml. Each mouse was injected with a volume to deliver 1 mg/kg of the compound (corresponding to 3 mg/m^2).
At designated time points (0.5, 1.5, and 3 hr), with the mice under terminal isofluorane anesthesia, systemic blood sample (ca 0.4-0.5 mL) were collected by cardiac puncture into micro-tube containing sodium EDTA-K2 as anti-coagulant (n=3 at each time point). Blood samples from the IRX4204EE arm of the study had appropriate esterase inhibitors added. The blood was centrifuged at 13000 rpm for 3 min at 4° C. to obtain plasma and protein was precipitated with acetonitrile prior to being assayed for compound content. The brain was removed and transferred to a pre-weighed vessel for weight determination. Brain tissue was homogenized in five volumes of PBS, centrifuged, and the supernatant assayed for compound content. […] The same standard curve was used to quantitate analyte concentrations in both brain and plasma.

[7] = CV-1 cells, 20 hours, luciferase activity
[8] = 200 µg/day, restimulation with PMA/Ionomycin

## CC(/C=C/[C@@H]1C[C@]1(C)c1ccc2c(c1)C(C)(C)CCC2(C)C)=C\C(=O)O [IRX4204, 3,7-dimethyl-6(S),7(S)-methano,7-[1,1,4,4-tetramethyl-1,2,3,4-tetrahydronaphth-7-yl]2(E),4(E) heptadienoic acid]
[1]; CV-1, read-out: EC90 with RXRβ
  EC90: ~1 nM
[2]; CV-1
  EC90: ~0.1 nM
[2]; [7]
  Efficacy (% of 1 µM IRX4204) RXRα: 100 % of 1 µM IRX4204
[3]
  Efficacy (% of 1 µM IRX4204) RXRγ: 0.09 ±0.01 100 % of 1 µM IRX4204
[3]; CV-1, read-out: EC90 with RXRγ
  EC90: ~0.1 nM
[4]
  activation of FXR/RXR heterodimer: not to transactivate; also recorded: does not activate
[5]
  EAE disease overall, dose titration: significantly less disease overall
[5]; 200 µg/day
  CCR6 expression on CD4 T cells, spleen: lowered
  co-expression of IFNg and IL-17A by CD4 T cells in CNS: not significantly different between groups
  frequency of CD4+ CD25hi cells, spleen: not altered
  number of CD4+ CD25hi cells, spleen: reduced
  total number of effector and memory CD4 T cells (CD44), spleen: decreased
  total number of infiltrating CD4 T cells in the CNS: reduced
  total number of recently activated CD4 T cells (CD69 and CD44), spleen: also decreased
[5]; [8]
  IFNγ production by CNS infiltrating lymphocytes: significantly reduced
  TNF production by CNS infiltrating lymphocytes: significantly reduced
[6]; male, ICR, mouse, brain, 3 hours post-administration
  concentration at 3 h: 7.9 to 8.2 nM

## CCOC(=O)/C=C(C)/C=C/[C@@H]1C[C@]1(C)c1ccc2c(c1)C(C)(C)CCC2(C)C [IRX4204EE, 3,7-dimethyl-6(S),7(S)-methano,7-[1,1,4,4-tetramethyl-1,2,3,4-tetrahydronaphth-7-yl]2(E),4(E) heptadienoic ethyl ester]
[1]; [7]
  EC50: > 1000 nM
[2]; [7]
  EC50: > 1000 nM
[3]; [7]
  EC50: > 1000 nM
[4]
  activation of FXR/RXR heterodimer: very little activity
[5]
  EAE disease overall, dose titration: more active than IRX4204 at each of the doses tested
[6]; 0.5 to 3 hr
  concentration of the ester in the brain over the course of the experiment: rose slightly
[6]; 3 hour time point
  concentration of the ester in blood compared with brain: approximately the same
[6]; 3 hours
  blood concentration of the ester itself relative to IRX4204: about 5 fold
  concentration of IRX4204 in the blood from the ester form compared with the free acid form: about the same
[6]; half-hour time point
  blood concentration of IRX4204 due to conversion of IRX4204EE relative to that due to IV injection of IRX4204: about one sixth
